Values of other authors in patent US6451782B1, “Use of 4-androstene-3alpha,17 beta-diol to increase testosterone levels in humans” (priority 2002, dated 2002).
Like-named read-outs stand apart in the source and are kept apart here.

Assays:
[1] = in-vitro, rat liver preparations
[2] = in-vitro, chicken liver preparations
[3] = humans, intravenous, radio-labeled, urinary metabolites
[4] = humans

C[C@]12CC[C@H]3[C@@H](CCC4=C[C@H](O)CC[C@@]43C)[C@@H]1CC[C@@H]2O [4-androstene-3alpha, 17beta-diol]
identified metabolites [1]: androstenedione, epitestosterone and testosterone | identified metabolites [2]: androstenedione, epitestosterone and testosterone | metabolic relationship to testosterone [3]: direct precursor relationship to testosterone | pathway of metabolism to androstane metabolites [3]: involved first its conversion to a 3-keto steroid

C[C@]12CC[C@H]3[C@@H](CCC4=CC(O)CC[C@@]43C)[C@@H]1CC[C@@H]2O (stereo partly drawn) [4-androstene-3,17beta-diol]
time to peak concentration of active hormone (testosterone) ([4]; after administration of the precursor): ≤ 90 min | period over which testosterone concentrations subsequently decline ([4]; after the peak): three to four | identified metabolites [1]: androstenedione, epitestosterone and testosterone | identified metabolites [2]: androstenedione, epitestosterone and testosterone | metabolic relationship to testosterone [3]: direct precursor relationship to testosterone
